Results on 1 compound are retold here after patent US20070248672A1, “Indole and Azaindole Derivatives with Antitumor Action” (priority 2004, published 2007).

Structures are written as SMILES. “Also recorded” adds a separate entry of the source. Where two headings read alike, the source gives them in different places.

Test [1] deals with HT29/Mit cells. In words: Co-treatment with topotecan, HT29/Mit resistant cells (Combination Index according to Kern). It is filed as cell-based, human. As to conditions: HT29/Mit; compound at non-toxic concentrations 0.01-0.1 μM. On the procedure: (§1) The cells (HT29 and HT29/Mit: 40,000 cells/ml, LoVo, LoVo/Dx and HCT116: 50,000 cells/ml) are seeded in 100 μl of the respective culture media in 96-well plates. 24 hours after seeding, an aliquot (10 μl) of drug at the various concentrations is added. In the samples in which the effect of the combination of two compounds is to be tested the inhibitor is added immediately before the cytotoxic. For each dose or combination of doses/drugs the effect of the treatment is determined in 4-8 replicates.
(§2) After 72 hours of treatment the antiproliferative effect is evaluated using the sulforhodamine B (SRB) assay: the cells are fixed by adding 25 μl of 50% TCA to each well and left for 1 hour at 4° C. After washing them with water and allowing them to dry, 100 μl of 0.4% SRB in 1% acetic acid are added and left for 30 minutes at room temperature. After 4 washes in 1% acetic acid, they are left to dry then the dye fixed by the proteins is dissolved under basic conditions with 100 μl 10 mM cold Tris and the solution is read using a spectrophotometer at 550 nm.
(§3) Percentage cell growth is calculated as the optical density of treated samples compared to the optical density of controls (untreated cells).
The Combination Index (C.I.) was determined according to Kern's method, 1988 (who continued from Drewinko B, 1976) (Kem D. H., Cancer Res. 48, 117-121, 1988; Drewinko B., Cancer Biochem. Biophys. 1, 187-195, 1976) by means of the following formula: […], where SFa and SFb are the fractions of cells surviving to treatment with compound a and b, respectively; SFab is the fraction surviving to the combination of compounds a and b. If the result is =1, the interaction between the two compounds is additive; if it is >1, the interaction between the two compounds is synergistic; if it is <1, the interaction between the two compounds is antagonistic.

Test [2] relates to HT29/Mit cells. In words: Antiproliferative activity, 72 h treatment, SRB assay, HT29/Mit resistant line. It is filed as cell-based, human. As to conditions: Homo sapiens. On the procedure: HT29 and HT29/Mit (line obtained by prolonged exposure to mitoxantrone, and characterised by overexpression of BCRP, which confers cross resistance to topotecan, irinotecan and to its metabolite SN38): maintained in McCoy 5A medium+10% FCS.
2.2 Scheme of the Antiproliferative Activity Experiment (Treatment Time: 72 Hours)
as §1, §2, §3
(The SRB assay estimates cell density from bound dye.)

For test [3], the target named is Vacuolar ATPase in bovine chromaffin cells membranes (BCG) (Bos taurus, UniProt P23956+Q29466). In words: Vacuolar ATPase inhibition in bovine chromaffin cells membranes (BCG). It counts as biochemical. The note with it: read-out: ATPase activity (IC50) BCG; bovine chromaffin cell membranes. On the procedure: Inhibition of bafilomycin sensitive ATPase activity is assayed by measuring the release of inorganic phosphate during 30 minutes of incubation, at 37° C., of the human osteoclastoma microsomal fraction in 96-well plates. The reaction medium contains 1 mM ATP, 10 mM Hepes-Tris buffer pH 8, 50 mM KCl, 5 μM valinomycin, 5 μM nigericin, 1 mM CDTA-Tris, 100 μM ammonium molybdate, 0.2 M sucrose and the microsomal fraction (20 μg protein/ml). The reaction is initiated by adding MgSO4 and terminated, after 30 minutes, by adding 4 volumes of the reagent malachite green, prepared according to Chan K., Anal. Biochem. 157, 375-380, 1986.
1.2 Determination of Vacuolar ATpase Inhibition in the Bovine Chromaffin Cells Membranes (BCG)
About 20 adrenal glands (Cidon S., J. Biol. Chem. 258, 2892-2898, 1983) are removed from healthy bovines; the medulla is quickly separated from the cortex, which is discarded. The medulla is homogenised at 4° C. with a suitable medium at pH 7.5, then filtered. The remaining solid material is further homogenised, filtered and recombined with the preceding filtrate, resuspended and centrifuged at 1000 g for 15 minutes; the supernatant obtained is centrifuged at 10000 g for 20 minutes. The resultant pellet is resuspended and stratified through a sucrose gradient formed of a lower part of 15 ml 1.5 M sucrose and an upper part of 10 ml 1.2 M sucrose. After overnight centrifugation at 4° C. with a SW28 rotor at 20000 rpm, the chromaffiln cells sediment into a pellet. This latter is resuspended, centrifuged at 3000 g for 10 minutes, and the supernatant obtained is centrifuged at 200000 g for 60 minutes. The pellet is then resuspended in 4 ml of a suitable medium containing 0.2 μg/ml pepstatin A and 0.4 μg/ml leupeptin and stored under liquid nitrogen.
The method for ATPase inhibition assay is the same as that followed for the osteoclastoma.

The next test concerns HepG2 cells. In words: Antiproliferative activity, 48 h treatment, ATPlite luminescence assay, HepG2. As to conditions: Homo sapiens; HepG2, 48 h treatment; read-out: Antiproliferative activity (IC50 ± S.D.) HepG2 48 h treatment. It is filed as cell-based, human. On the procedure: HepG2: maintained in EMEM medium+10% FCS.
2.3 Scheme of the Antiproliferative Activity Experiment (Treatment Time: 48 Hours)
The cells (concentration: 30,000 cells/ml) are seeded in 90 μl of the respective culture media in 96-well plates. 24 hours after seeding, an aliquot (10 μl) of the drug at the various concentrations is added (for each concentration there are 3 replicates). After 48 hours of treatment the antiproliferative effect is evaluated with a luminescence assay (Perkin Elmer Life Sciences ATPlite):
50 μl of a lysis solution are added to each well followed by an equal volume of a solution containing luciferase and D-luciferin. The ATP present in all the metabolically active cells brings about the transformation reaction of D-luciferin, catalysed by luciferase, to produce a luminescent signal as described in the following scheme: ATP+D-luciferin+O2→Oxyluciferin+AMP+PP1+CO2+Light
The luminescence produced (expressed in counts per second, CPS) is measured by means of a microplate scintillation analyzer (Perkin Elmer Life Sciences Top Count).
Percentage inhibition of luminescence in the treated cells compared to the control is calculated; concentration-response curves are then analysed using Grafit v.5.0.
A general note: ATP-based viability assays read luminescence as a measure of living cells.

Vacuolar ATPase in bovine chromaffin cells membranes (BCG), sequence (P23956 whole entry, looked up): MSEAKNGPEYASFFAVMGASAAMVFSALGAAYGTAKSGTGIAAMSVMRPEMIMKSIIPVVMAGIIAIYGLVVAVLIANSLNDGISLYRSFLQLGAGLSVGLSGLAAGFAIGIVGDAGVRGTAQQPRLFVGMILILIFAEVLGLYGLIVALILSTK
Vacuolar ATPase in bovine chromaffin cells membranes (BCG), sequence (Q29466 whole entry, looked up): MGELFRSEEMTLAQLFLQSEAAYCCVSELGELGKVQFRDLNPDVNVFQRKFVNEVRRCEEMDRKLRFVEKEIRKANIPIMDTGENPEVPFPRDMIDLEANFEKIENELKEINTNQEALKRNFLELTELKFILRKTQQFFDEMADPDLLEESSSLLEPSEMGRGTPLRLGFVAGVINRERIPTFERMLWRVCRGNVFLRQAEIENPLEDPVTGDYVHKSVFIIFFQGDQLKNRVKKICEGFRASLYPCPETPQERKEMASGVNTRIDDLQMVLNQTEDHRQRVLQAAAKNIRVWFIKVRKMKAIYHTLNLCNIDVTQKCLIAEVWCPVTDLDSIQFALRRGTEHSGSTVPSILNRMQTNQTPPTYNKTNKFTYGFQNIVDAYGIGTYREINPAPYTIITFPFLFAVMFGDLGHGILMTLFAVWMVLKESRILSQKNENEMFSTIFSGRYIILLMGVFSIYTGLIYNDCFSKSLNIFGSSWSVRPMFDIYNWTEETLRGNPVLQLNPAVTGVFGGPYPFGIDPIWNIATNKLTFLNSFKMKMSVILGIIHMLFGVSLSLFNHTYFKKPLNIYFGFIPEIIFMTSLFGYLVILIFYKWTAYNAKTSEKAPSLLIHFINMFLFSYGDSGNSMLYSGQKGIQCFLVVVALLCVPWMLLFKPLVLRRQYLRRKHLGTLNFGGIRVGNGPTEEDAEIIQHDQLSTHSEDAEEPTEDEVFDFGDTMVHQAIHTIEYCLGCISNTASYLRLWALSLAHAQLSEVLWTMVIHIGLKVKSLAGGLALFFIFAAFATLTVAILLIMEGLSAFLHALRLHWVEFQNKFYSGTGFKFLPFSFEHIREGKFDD

Consider `COC(=O)c1[nH]c2cc(OC)c(OC)cc2c1-c1ccc(OC)cc1` [Example 1, 5,6-Dimethoxy-3-(4-methoxy-phenyl)-1H-indole-2-carboxylic acid methyl ester], for which the “effect of co-treatment with topotecan” value with HT29/Mit cells [1] was “synergism; also recorded: clear synergistic effect”. In addition, the IC50 is 100 to 3000 nM with HT29/Mit cells [2] (HT-29, HT29/Mit, after 72 hours of treatment, range stated for the group, read-out: IC50 values in the resistant line); 1000 ± 900 nM in the test on HT29/Mit cells [2] (HT-29/Mit resistant line, 72 h treatment, read-out: Antiproliferative activity (IC50 ± S.D.) HT-29/Mit); 644 nM in test [3]; 24.4 ± 7.9 µM in the test on HepG2 cells.
